This passage reports melting point results from patent US8580790B2, “(Heterocycle/condensed piperidine)-(piperazinyl)-1-alkanone or (heterocycle/condensed pyrrolidine)-(piperazinyl)-1-alkanone derivatives and use thereof as p75 inhibitors” (Sanofi, priority 2009, dated 2013).

Where a name gives a salt, the structure may show the parent alone.

Turning to `O=C(CN1CCN(c2ccc(C(F)(F)F)cn2)C(=O)C1)N1CCc2nn(-c3ccccn3)cc2C1` [compound 119, 4-[2-oxo-2-(2-pyridin-2-yl-2,4,6,7-tetrahydropyrazolo[4,3-c]pyridin-5-yl)ethyl]-1-(5-trifluoromethylpyridin-2-yl)piperazin-2-one], the melting point was 139 to 140 °C. The same measure for `C[C@@H]1CN(c2ccc(C(=O)O)cn2)C[C@H](C)N1CC(=O)N1CCc2nn(-c3ccccc3)cc2C1` [compound 149, 6-{(3S,5R)-3,5-dimethyl-4-[2-oxo-2-(2-phenyl-2,4,6,7-tetrahydropyrazolo[4,3-c]pyridin-5-yl)ethyl]piperazin-1-yl}nicotinic acid]: 208 to 209 °C. `O=C(CN1CC2CCC(C1)N2c1ccc(-c2noc(=O)[nH]2)cn1)N1CCc2nc(-c3ccccc3)sc2C1` yielded a melting point of 215 to 218 °C. The same measure for `O=C(CN1CC2CCC(C1)N2c1ncc(F)cn1)N1CCc2c(cnn2-c2ccc(C(F)(F)F)cc2)C1`: 162 to 164 °C; for `O=C(CN1CC2CCC(C1)N2c1ccc(C(F)(F)F)cn1)N1CCc2cc(-c3ccccc3)oc2C1`: 155 °C; for `C[C@@H]1CN(c2ccc3ccccc3n2)C[C@H](C)N1CC(=O)N1CCc2nn(-c3ccccc3)cc2C1` [compound 129, 2-((2S,6R)-2,6-dimethyl-4-quinolin-2-ylpiperazin-1-yl)-1-(2-phenyl-2,4,6,7-tetrahydropyrazolo[4,3-c]pyridin-5-yl)ethanone]: 203 to 204 °C. The same measure for `O=C(CN1CC2CCC(C1)N2c1ccc(C(F)(F)F)cn1)N1CCc2nn(-c3ccc(C(F)(F)F)cn3)cc2C1`: 192 to 193 °C. `C[C@@H]1CN(c2ccc(C(F)(F)F)cn2)C[C@H](C)N1CC(=O)N1CCc2nn(C)cc2C1` (as salt: HCl) [compound 100, 2-[(2S,6R)-2,6-dimethyl-4-(5-trifluoromethylpyridin-2-yl)piperazin-1-yl]-1-(2-methyl-2,4,6,7-tetrahydropyrazolo[4,3-c]pyridin-5-yl)ethanone] came in with a melting point of 50 to 51 °C. The compound `C[C@@H]1CN(c2ccc(S(C)(=O)=O)cn2)C[C@H](C)N1CC(=O)N1CCc2nn(-c3ccccc3)cc2C1` [compound 131, 2-[(2S,6R)-4-(5-methanesulphonylpyridin-2-yl)-2,6-dimethylpiperazin-1-yl]-1-(2-phenyl-2,4,6,7-tetrahydropyrazolo[4,3-c]pyridin-5-yl)ethanone] came in with a melting point of 103 to 105 °C. The same measure for `O=C(CN1CC2CCC(C1)N2c1ncc(F)cn1)N1CCc2nc(-c3cccnc3)sc2C1`: 200 to 202 °C; for `O=C(O)c1ccc(N2CC3CCC(C2)N3CC(=O)N2CCc3nn(-c4ccccc4)cc3C2)nc1`: 207 to 208 °C; for `CC(C)OC(=O)c1ccc(N2C[C@@H](C)N(CC(=O)N3CCc4nn(-c5ccccc5)cc4C3)[C@@H](C)C2)nc1` [compound 98, 6-{(3S,5R)-3,5-dimethyl-4-[2-oxo-2-(2-phenyl-2,4,6,7-tetrahydropyrazolo[4,3-c]pyridin-5-yl)ethyl]piperazin-1-yl}nicotinic acid isopropyl ester]: 135 to 136 °C. Under `O=C(CN1CCN(c2ccc(C(F)(F)F)cn2)C(=O)C1)N1CCc2nc(-c3ccc(F)cc3)[nH]c2C1` [compound 120, 4-{2-[2-(4-fluorophenyl)-3,4,6,7-tetrahydroimidazo[4,5-c]pyridin-5-yl]-2-oxoethyl}-1-(5-trifluoromethylpyridin-2-yl)piperazin-2-one] stands 190 to 192 °C; under `O=C(CN1CCN(c2ccnc3cc(Cl)ccc23)CC1)N1CCc2nn(-c3ccccc3)cc2C1` [compound 113, 2-[4-(7-chloroquinolin-4-yl)piperazin-1-yl]-1-(2-phenyl-2,4,6,7-tetrahydropyrazolo[4,3-c]pyridin-5-yl)ethanone], 100 to 101 °C. In turn, `O=C(CN1CC2CCC(C1)N2c1cncnc1)N1CCc2nn(-c3ccccc3)cc2C1` came in with a melting point of 197 to 198 °C. The same measure for `C[C@@H]1CN(c2cccnc2)C[C@H](C)N1CC(=O)N1CCc2nn(-c3ccc(C(F)(F)F)cn3)cc2C1` [compound 143, 2-((2S,6R)-2,6-dimethyl-4-pyridin-3-ylpiperazin-1-yl)-1-[2-(5-trifluoromethylpyridin-2-yl)-2,4,6,7-tetrahydropyrazolo[4,3-c]pyridin-5-yl]ethanone]: 196 to 197 °C; for `C[C@@H]1CN(c2ccc(-c3nnco3)cn2)C[C@H](C)N1CC(=O)N1CCc2nn(-c3ccccc3)cc2C1` [compound 90, 2-[(2S,6R)-2,6-dimethyl-4-(5-[1,3,4]oxadiazol-2-ylpyridin-2-yl)piperazin-1-yl]-1-(2-phenyl-2,4,6,7-tetrahydropyrazolo[4,3-c]pyridin-5-yl)ethanone]: 189 to 190 °C. The same measure for `C[C@@H]1CN(c2ccc(C(F)(F)F)cn2)C[C@H](C)N1CC(=O)N1CCc2nc(-c3ccccc3)[nH]c2C1` [compound 110, 2-[(2S,6R)-2,6-dimethyl-4-(5-trifluoromethylpyridin-2-yl)piperazin-1-yl]-1-(2-phenyl-3,4,6,7-tetrahydroimidazo[4,5-c]pyridin-5-yl)ethanone]: 189 to 192 °C; for `O=C(CN1CCN(c2ccc(C(F)(F)F)cn2)C(=O)C1)N1CCc2c(cnn2CC(F)(F)F)C1` (as salt: oxalate) [compound 66, 4-{2-oxo-2-[1-(2,2,2-trifluoroethyl)-1,4,6,7-tetrahydropyrazolo[4,3-c]pyridin-5-yl]ethyl}-1-(5-trifluoromethylpyridin-2-yl)piperazin-2-one]: 82 to 83 °C. The same measure for `O=C(CN1CC2CCC(C1)N2c1ncc(F)cn1)N1CCc2nc(-c3ccccc3)[nH]c2C1`: 130 to 132 °C; for `O=C(CN1CC2CCC(C1)N2c1ncc(F)cn1)N1CCc2n[nH]cc2C1`: 122 to 123 °C; for `C[C@@H]1CN(c2ccc(C(F)(F)F)cn2)C[C@H](C)N1CC(=O)N1CCc2cc(-c3ccccc3)oc2C1` [compound 97, 2-[(2S,6R)-2,6-dimethyl-4-(5-trifluoromethylpyridin-2-yl)piperazin-1-yl]-1-(2-phenyl-4,7-dihydro-5H-furano[2,3-c]pyridin-6-yl)ethanone]: 162 °C. As for `C[C@@H]1CN(c2ccc(C(=O)O)cn2)C[C@H](C)N1CC(=O)N1CCc2nn(-c3ccccc3)cc2C1` (as salt: HCl) [compound 21, 6-{(3S,5R)-3,5-dimethyl-4-[2-oxo-2-(2-phenyl-2,4,6,7-tetrahydropyrazolo[4,3-c]pyridin-5-yl)ethyl]piperazin-1-yl}nicotinic acid], the melting point lay within 209 to 211 °C. The compound `O=C(CN1CC2CCC(C1)N2c1ncc(F)cn1)N1CCc2nc(-c3ccncc3)sc2C1` showed a melting point of 193 to 194 °C. The compound `O=C(CN1CCN(c2cncc(Cl)n2)CC1)N1CCc2nn(-c3ccc(C(F)(F)F)cn3)cc2C1` [compound 108, 2-(6′-chloro-2,3,5,6-tetrahydro[1,2′]bipyrazinyl-4-yl)-1-[2-(5-trifluoromethylpyridin-2-yl)-2,4,6,7-tetrahydropyrazolo[4,3-c]pyridin-5-yl]ethanone] returned a melting point of 185 to 186 °C.

With `Cc1nc(-c2ccc(N3C[C@@H](C)N(CC(=O)N4CCc5nn(-c6ccccc6)cc5C4)[C@@H](C)C3)nc2)no1` [compound 89, 2-{(2S,6R)-2,6-dimethyl-4-[5-(5-methyl[1,2,4]oxadiazol-3-yl)-pyridin-2-yl]piperazin-1-yl}-1-(2-phenyl-2,4,6,7-tetrahydropyrazolo[4,3-c]pyridin-5-yl)ethanone], the melting point fell in the range of 163 to 164 °C.

Compound `O=C(CN1CC2CCC(C1)N2c1ncc(F)cn1)N1CCc2nc(-c3ccccc3)ncc2C1` had a melting point of 212 to 213 °C. Regarding `C[C@@H]1CN(c2ccc(C(F)(F)F)cn2)C[C@H](C)N1CC(=O)N1CCc2nn(-c3ccc(C(F)(F)F)cn3)cc2C1` [compound 103, 2-[(2S,6R)-2,6-dimethyl-4-(5-trifluoromethylpyridin-2-yl)piperazin-1-yl]-1-[2-(5-trifluoromethylpyridin-2-yl)-2,4,6,7-tetrahydropyrazolo[4,3-c]pyridin-5-yl]ethanone], the melting point was in the range of 190 to 191 °C. The compound `O=C(CN1CC2CCC(C1)N2c1ccc(C(F)(F)F)cn1)N1CCc2nc(-c3ccncc3)sc2C1` displayed a melting point of 183 to 185 °C. Under `O=C(CN1CC2CCC(C1)N2c1ncc(F)cn1)N1CCc2oc(-c3ccccc3)nc2C1` stands 88 to 89 °C; under `C[C@@H]1CN(c2ncc(F)cn2)C[C@H](C)N1CC(=O)N1CCc2nn(-c3ccccc3)cc2C1` [compound 17, 2-[(2S,6R)-4-(5-fluoropyrimidin-2-yl)-2,6-dimethylpiperazin-1-yl]-1-(2-phenyl-2,4,6,7-tetrahydropyrazolo[4,3-c]pyridin-5-yl)ethanone], 174 to 175 °C; under `C[C@@H]1CN(c2ccc(C(F)(F)F)nc2)C[C@H](C)N1CC(=O)N1CCc2nc(-c3ccccc3)sc2C1` [compound 18, 2-[(2S,6R)-2,6-dimethyl-4-(6-trifluoromethylpyridin-3-yl)piperazin-1-yl]-1-(2-phenyl-6,7-dihydro-4H-thiazolo[5,4-c]pyridin-5-yl)ethanone], 168 to 169 °C. The same measure for `C[C@@H]1CN(c2cnccn2)C[C@H](C)N1CC(=O)N1CCc2nn(-c3ccc(C(F)(F)F)cn3)cc2C1` [compound 111, 2-((3S,5R)-3,5-dimethyl-2,3,5,6-tetrahydro[1,2′]bipyrazinyl-4-yl)-1-[2-(5-trifluoromethylpyridin-2-yl)-2,4,6,7-tetrahydropyrazolo[4,3-c]pyridin-5-yl]ethanone]: 150 to 151 °C; for `COc1ccc(-c2nc3c(s2)CN(C(=O)CN2[C@H](C)CN(c4ncc(F)cn4)C[C@@H]2C)CC3)cc1` [compound 132, 2-[(2S,6R)-4-(5-fluoropyrimidin-2-yl)-2,6-dimethylpiperazin-1-yl]-1-[2-(4-methoxyphenyl)-6,7-dihydro-4H-thiazolo[5,4-c]pyridin-5-yl]ethanone]: 159 to 161 °C; for `Cc1nc2c(s1)CN(C(=O)CN1CC3CCC(C1)N3c1ncc(F)cn1)CC2`: 137 to 138 °C. The same measure for `N#Cc1ccc(N2C3CCC2CN(CC(=O)N2CCc4nn(-c5ccccc5)cc4C2)C3)nc1`: 198 to 200 °C.

As a reminder, the melting point is the temperature, or range, at which the solid turns liquid.
